Assays:
[1] = biological target: hOx1R (Homo sapiens (Human), UniProt O43613); assay: Calcium accumulation in cells (FLIPR), hOx1R; assay type: cell-based; details: for Ki: inhibition of orexin A induced calcium accumulation, Cheng and Prusoff correction; for inhibition at 10 µM: measured at a concentration of 10 μM of compound
Procedure: (§1) Calcium Accumulation in Cells (FLIPR):
(§2) Cells expressing human orexin 1 or human orexin 2 receptors, were seeded at 8,000 cells/well in 384 well black-walled clear bottom, poly-D-lysine coated plates. After 24 h, the medium was removed and cells were washed once with phosphate buffered saline and serum-deprived overnight in assay buffer (130 mM NaCl, 5.4 mM KCl, 1.8 mM CaCl2, 0.8 mM MgSO4, 0.9 mM NaH2PO4, 25 mM glucose, 20 mM HEPES, pH 7.4) containing bovine serum albumin (1% w/v).
(§3) On the day of the experiment, the cells seeded in black plates were treated with assay buffer containing the Ca^2+ sensitive fluorescent dye Fluo-4-AM (2 μM), and probenecid (0.1 mM). After 1 h plates were washed twice with, and resuspended in, assay buffer containing probenecid (0.1 mM) using a multi plate washer. […] Fluorescence measurements were then continued every 1 S for 120 S followed by every 4 S for 240 S.
(§4) The measurements were typically made in two sequences:
(§5) Compounds of formula I were tested usually in a concentration range from 10^−9 M to 10^−5 M.
(§6) In the second round, performed one hour later (to allow for equilibration), Orexin A was tested either in the absence (calibration curves, Orexin A agonist controls) or in the presence of compounds of formula I to determine antagonism.

[2] = biological target: hOx2R (Homo sapiens (Human), UniProt O43614); assay: Calcium accumulation in cells (FLIPR), hOx2R; assay type: cell-based; details: for Ki: inhibition of orexin A induced calcium accumulation, Cheng and Prusoff correction; for inhibition at 10 µM: measured at a concentration of 10 μM of compound
Procedure: as §1, §2, §3, §4, §5, §6

Sequence of hOx1R (O43613 whole entry): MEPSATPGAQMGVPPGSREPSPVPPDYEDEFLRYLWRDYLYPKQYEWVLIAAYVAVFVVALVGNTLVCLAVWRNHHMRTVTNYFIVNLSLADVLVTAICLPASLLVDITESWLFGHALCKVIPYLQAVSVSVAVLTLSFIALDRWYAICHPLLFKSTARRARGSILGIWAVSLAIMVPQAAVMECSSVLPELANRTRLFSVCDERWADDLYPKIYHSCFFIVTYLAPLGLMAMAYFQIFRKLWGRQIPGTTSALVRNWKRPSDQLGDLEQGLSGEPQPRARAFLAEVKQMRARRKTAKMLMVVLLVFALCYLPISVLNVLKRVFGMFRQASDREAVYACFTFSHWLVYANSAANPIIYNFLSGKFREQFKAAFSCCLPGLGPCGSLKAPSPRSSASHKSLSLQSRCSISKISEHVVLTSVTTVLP
Sequence of hOx2R (O43614 whole entry): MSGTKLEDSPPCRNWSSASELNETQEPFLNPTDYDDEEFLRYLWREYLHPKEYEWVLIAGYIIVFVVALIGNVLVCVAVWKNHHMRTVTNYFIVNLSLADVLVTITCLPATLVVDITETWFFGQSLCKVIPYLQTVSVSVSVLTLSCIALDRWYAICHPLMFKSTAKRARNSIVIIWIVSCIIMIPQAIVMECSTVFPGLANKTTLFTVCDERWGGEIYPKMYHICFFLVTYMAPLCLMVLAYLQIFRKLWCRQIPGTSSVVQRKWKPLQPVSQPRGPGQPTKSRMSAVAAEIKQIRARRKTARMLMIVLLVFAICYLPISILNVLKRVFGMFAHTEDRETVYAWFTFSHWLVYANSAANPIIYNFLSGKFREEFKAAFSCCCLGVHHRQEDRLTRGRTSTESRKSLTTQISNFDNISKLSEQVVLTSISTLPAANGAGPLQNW

Row | SMILES | Ki [1] [nM] | Ki [2] [nM] | inhibition at 10 µM [1] [%] | inhibition at 10 µM [2] [%]
1 | Cc1cc(C)cc(CN2CCCC3(CCN(c4cnc5ccccc5n4)CC3)C2=O)c1 [Example 16, 2-(3,5-dimethylbenzyl)-9-(quinoxalin-2-yl)-2,9-diazaspiro[5.5]undecan-1-one] | 1190 | 113 |  | 
2 | Cc1cccc(CN2CCCC3(CCN(c4cnc5ccccc5n4)CC3)C2=O)c1C [Example 17, 2-(2,3-dimethylbenzyl)-9-(quinoxalin-2-yl)-2,9-diazaspiro[5.5]undecan-1-one] | 1720 | 247 |  | 
3 | COc1cccc(CN2CCCC3(CCN(c4cnc5ccccc5n4)CC3)C2=O)c1OC [Example 18, 2-(2,3-dimethoxybenzyl)-9-(quinoxalin-2-yl)-2,9-diazaspiro[5.5]undecan-1-one] |  | 782 | 3 | 
4 | Cc1ccccc1CN1CCCC2(CCN(c3cnc4ccccc4n3)CC2)C1=O [Example 19, 2-(2-methylbenzyl)-9-(quinoxalin-2-yl)-2,9-diazaspiro[5.5]undecan-1-one] |  | 495 | 12 | 
5 | Cc1ccc(C)c(CN2CCCC3(CCN(c4cnc5ccccc5n4)CC3)C2=O)c1 [Example 20, 2-(2,5-dimethylbenzyl)-9-(quinoxalin-2-yl)-2,9-diazaspiro[5.5]undecan-1-one] | 945 | 205 |  | 
6 | Cn1ccc2c(CN3CCCC4(CCN(c5cnc6ccccc6n5)CC4)C3=O)cccc21 [Example 26, 2-((1-methyl-1H-indol-4-yl)methyl)-9-(quinoxalin-2-yl)-2,9-diazaspiro[5.5]undecan-1-one] | 614 | 168 |  | 
7 | O=C1N(Cc2cccc(Cl)c2)CCCC12CCN(c1nc3ccccc3[nH]1)CC2 [Example 28, 9-(1H-benzo[d]imidazol-2-yl)-2-(3-chlorobenzyl)-2,9-diazaspiro[5.5]undecan-1-one] |  | 160 | 33 | 
8 | O=C1N(Cc2cccc(Cl)c2)CCCC12CCN(c1nccc(-c3ccccc3)n1)CC2 [Example 29, 2-(3-chlorobenzyl)-9-(4-phenylpyrimidin-2-yl)-2,9-diazaspiro[5.5]undecan-1-one] | 1700 | 614 |  | 
9 | Cn1c(CN2CCCC3(CCN(c4cnc5ccccc5n4)CC3)C2=O)nc2ccccc21 [Example 30, 2-((1-methyl-1H-benzo[d]imidazol-2-yl)methyl)-9-(quinoxalin-2-yl)-2,9-diazaspiro[5.5]undecan-1-one] |  |  | 17 | 33
10 | COc1ccc(-c2nnc(CN3CCCC4(CCN(c5cnc6ccccc6n5)CC4)C3=O)o2)cc1 [Example 31, 2-((5-(4-methoxyphenyl)-1,3,4-oxadiazol-2-yl)methyl)-9-(quinoxalin-2-yl)-2,9-diazaspiro[5.5]undecan-1-one] | 3690 | 1180 |  | 
11 | Cc1noc(-c2ccccc2)c1CN1CCCC2(CCN(c3cnc4ccccc4n3)CC2)C1=O [Example 32, 2-((3-methyl-5-phenylisoxazol-4-yl)methyl)-9-(quinoxalin-2-yl)-2,9-diazaspiro[5.5]undecan-1-one] | 1280 | 138 |  | 
12 | Cc1cc(CN2CCCC3(CCN(c4cnc5ccccc5n4)CC3)C2=O)c2ccccc2n1 [Example 33, 2-((2-methylquinolin-4-yl)methyl)-9-(quinoxalin-2-yl)-2,9-diazaspiro[5.5]undecan-1-one] | 2360 | 282 |  | 
13 | O=C1N(Cc2cccc(-n3cccc3)c2)CCCC12CCN(c1cnc3ccccc3n1)CC2 [Example 35, 2-(3-(1H-pyrrol-1-yl)benzyl)-9-(quinoxalin-2-yl)-2,9-diazaspiro[5.5]undecan-1-one] |  | 272 | 26 | 
14 | O=C1N(Cc2noc3ccccc23)CCCC12CCN(c1cnc3ccccc3n1)CC2 [Example 36, 2-(benzo[d]isoxazol-3-ylmethyl)-9-(quinoxalin-2-yl)-2,9-diazaspiro[5.5]undecan-1-one] | 591 | 197 |  | 
15 | Cc1noc(C)c1CN1CCCC2(CCN(c3cnc4ccccc4n3)CC2)C1=O [Example 37, 2-((3,5-dimethylisoxazol-4-yl)methyl)-9-(quinoxalin-2-yl)-2,9-diazaspiro[5.5]undecan-1-one] |  |  | 8 | 22
16 | O=C1N(Cc2c[nH]c3ccccc23)CCCC12CCN(c1nc3ccccc3o1)CC2 [Example 40, 2-((1H-indol-3-yl)methyl)-9-(benzo[d]oxazol-2-yl)-2,9-diazaspiro[5.5]undecan-1-one] | 1020 | 98 |  | 
17 | COc1cc(CN2CCCC3(CCN(c4cnc5ccccc5n4)CC3)C2=O)ccn1 [Example 45, 2-((2-methoxypyridin-4-yl)methyl)-9-(quinoxalin-2-yl)-2,9-diazaspiro[5.5]undecan-1-one] |  |  | 19 | 43
18 | Cn1cc(-c2ccccc2CN2CCCC3(CCN(c4cnc5ccccc5n4)CC3)C2=O)cn1 [Example 51, 2-(2-(1-methyl-1H-pyrazol-4-yl)benzyl)-9-(quinoxalin-2-yl)-2,9-diazaspiro[5.5]undecan-1-one] |  |  | 57 | 32
19 | O=C1N(Cc2c[nH]c3ccccc23)CCCC12CCN(c1nc3ccccc3s1)CC2 [Example 52, 2-((1H-indol-3-yl)methyl)-9-(benzo[d]thiazol-2-yl)-2,9-diazaspiro[5.5]undecan-1-one] | 1360 | 178 |  | 
20 | O=C1N(Cc2ccc3nonc3c2)CCCC12CCN(c1cnc3ccccc3n1)CC2 [Example 53, 2-(benzo[c][1,2,5]oxadiazol-5-ylmethyl)-9-(quinoxalin-2-yl)-2,9-diazaspiro[5.5]undecan-1-one] |  |  | 37 | 24
21 | O=C1N(Cc2cccc3cnccc23)CCCC12CCN(c1cnc3ccccc3n1)CC2 [Example 55, 2-(isoquinolin-5-ylmethyl)-9-(quinoxalin-2-yl)-2,9-diazaspiro[5.5]undecan-1-one] | 932 | 151 |  | 
22 | O=C1N(Cc2ccnc(N3CCOCC3)c2)CCCC12CCN(c1cnc3ccccc3n1)CC2 [Example 56, 2-((2-morpholinopyridin-4-yl)methyl)-9-(quinoxalin-2-yl)-2,9-diazaspiro[5.5]undecan-1-one] | 2040 | 483 |  | 
23 | O=C1N(Cc2cccc(-c3ccncc3)c2)CCCC12CCN(c1cnc3ccccc3n1)CC2 [Example 58, 2-(3-(pyridin-4-yl)benzyl)-9-(quinoxalin-2-yl)-2,9-diazaspiro[5.5]undecan-1-one] | 570 | 217 |  | 
24 | O=C1N(Cc2cccc(N3CCOCC3)c2)CCCC12CCN(c1cnc3ccccc3n1)CC2 [Example 59, 2-(3-morpholinobenzyl)-9-(quinoxalin-2-yl)-2,9-diazaspiro[5.5]undecan-1-one] |  |  | 12 | 31
25 | O=C1N(Cc2ccccn2)CCCC12CCN(c1cnc3ccccc3n1)CC2 [Example 62, 2-(pyridin-2-ylmethyl)-9-(quinoxalin-2-yl)-2,9-diazaspiro[5.5]undecan-1-one] |  | 833 | 29 | 
26 | CN1CCc2c(CN3CCCC4(CCN(c5cnc6ccccc6n5)CC4)C3=O)cccc21 [Example 145, 2-((1-methylindolin-4-yl)methyl)-9-(quinoxalin-2-yl)-2,9-diazaspiro[5.5]undecan-1-one] |  | 636 |  | 
